In patent publication US20150190410A1, “USE OF CREATINE AND PHOSPHOCREATINE IN THE TREATMENT OF EPILEPSY AND ALCOHOL ADDICTION” (Dignity Health, priority 2012, published 2015):
“And” between values parts separate entries of the source, which are not always exact repeats. Equal entries are not always repeated.

Legend:
[1] = system: atypical absence epilepsy rodent models; assay: AY9944 atypical absence epilepsy rodent model: seizure number and seizure time under creatine; type: in vivo, rat; conditions: for Seizure # Between 13:00:00 to 15:00:00: twice daily injection of creatine at 30 mg/kg, individual epileptic animals
Description: • Induced via administering the cholesterol inhibitor AY9944 during postnatal developing period P2 to P21. • Epileptic seizure is chronic, resembling all the symptoms of atypical absence epilepsy • Failure to show ictal immobility • Slow spike-wave discharges • Cognitive impairments • Counterintuitive with application of GABA Positive allosteric modulators and Agonists. • Greater seizure susceptibility in female than male.
11 epileptic animals were treated initially with saline to establish base line (day 0), then treated with twice daily injection of creatine at 30 mg/kg (days 1-5). […] Specifically, the inventors performed the following: • Day 0—Control (saline injection) • Injection of creatine between days 1-5—twice daily injection of 30 mg/kg of creatine • Day #2 (30 mg/kg creatine) • Day #5 (30 mg/kg creatine)

[2] = system: extra-synaptic GABAA receptors; assay: Allosteric modulation of extra-synaptic GABAA receptors (expression cells; whole cell patch clamp); type: cell-based
Source text: FIG. 3 depicts, in accordance with an embodiment herein, utilizing whole cell patch clamp on primary cultured neuron (rat cortex) to confirm creatine's effect on extra-synaptic GABAA receptors.

[3] = system: GABAA receptor expressing cells; assay: Co-application with ethanol on GABAA receptor expressing cells; type: cell-based; conditions: depends on concentration relative to ethanol
Source text: Thus, in one embodiment, creatine, phosphocreatine and their analogs can be used to prevent and/or provide protection against alcohol addiction.
Alcoholism is a serious problem both to the individual, the individual's family, and society. Currently there is no compound that can effectively prevent alcoholism. Alcohol (Ethanol) acts as a positive allosteric modulator of extrasynaptic GABAA receptors. […] Thus creatine, phosphocreatine and their analogs may be used to prevent and/or provide protection against alcohol addiction.

[4] = system: atypical absence epilepsy rodent models; assay: AY9944 atypical absence epilepsy rodent model: seizure number and seizure time under creatine; type: in vivo, rat
[5] = Day 2 vs Day 0 saline control, 30 mg/kg twice daily, individual animals, 30 mg/kg
[6] = Day 5 vs Day 0 saline control, 30 mg/kg twice daily, individual animals, 30 mg/kg
[7] = average of 11 animals, Day 2, 30 mg/kg twice daily
[8] = average of 11 animals, Day 5, 30 mg/kg twice daily

| SMILES | Seizure # Between 13:00:00 to 15:00:00 ([1]; Day 2, 30 mg/kg) | % Seizure # Reduction, Day #2 Post Creatine/Control [1, 5] | % Total Seizure Time Reduction, Day #2 Post Creatine/Control [1, 5] | Seizure # Between 13:00:00 to 15:00:00 ([1]; Day 5, 30 mg/kg) | % Seizure # Reduction, Day #5 Post Creatine/Control [1, 6] | % Total Seizure Time Reduction, Day #5 Post Creatine/Control [1, 6] | % Seizure # Reduction, Day #2 Post Creatine/Control, Average [1, 7] [%] | % Total Seizure Time Reduction, Day #2 Post Creatine/Control, Average [1, 7] [%] | % Seizure # Reduction, Day #5 Post Creatine/Control, Average [1, 8] [%] | % Total Seizure Time Reduction, Day #5 Post Creatine/Control, Average [1, 8] [%] | reduction in duration of epileptic seizure events ([1]; epileptic rodent model) | reduction in frequency of epileptic seizure events ([1]; epileptic rodent model) | mode of action on extra-synaptic GABAA receptors [2] | effect on the GABAA receptor positive allosteric modulator effect of alcohol (ethanol) [3] | duration of effect of a single dose compared to current antiepileptic drugs [4] | therapeutic effect compared with creatine ([1]; atypical absence epilepsy rodent models) | effect on expression cells compared with creatine ([2]; expression cells) |
| --- | --- | --- | --- | --- | --- | --- | --- | --- | --- | --- | --- | --- | --- | --- | --- | --- | --- |
| CN(CC(=O)O)C(=N)N [creatine] | 2 and 17 (2×) and 14 and 7 and 31 and 25 and 16 and 20 and 4 and 15 | 28.57% and 91.30% and 63.04% and 56.25% and 12.50% and 27.91% and 30.56% and 44.83% and 25.93% and 69.23% and 26.09% | 63.25% and 80.95% and 92.74% and 82.31% and 52.13% and 40.86% and 76.08% and 73.42% and 89.95% and 85.75% and 74.05% | 5 (2×) and 21 and 18 and 4 and 26 and 23 and 13 and 16 and 10 and 15 | 76.19% and 78.26% and 54.35% and 43.75% and 50.00% and 39.53% and 36.11% and 55.17% and 40.74% and 23.08% and 34.78% | 86.37% and 70.56% and 58.23% and 70.52% and 46.23% and 35.72% and 80.58% and 85.99% and 92.36% and 36.75% and 74.61% | 43.29 | 73.77 | 48.36 | 67.08 | greater than 70% | greater than 70% | partial negative allosteric modulator | preventing or significantly diminishing | last much longer than conventional antiepileptic drugs |  |  |
| NC1=NCCN1CC(=O)O [cyclocreatine] |  |  |  |  |  |  |  |  |  |  |  |  |  |  |  | does not confer the same therapeutic effect as creatine |  |
| CN(CC(=O)O)C(=N)NP(=O)(O)O [phosphocreatine] |  |  |  |  |  |  |  |  |  |  |  |  |  | preventing or significantly diminishing |  |  | same effect as creatine |
